Patent US11505560B2, “Heterobifunctional compounds with improved specificity” (DANA-FARBER CANCER INSTITUTE, INC., priority 2017, dated 2022)
Entries after “also recorded” stand apart in the source; their conditions may differ.

Tests used:
[1] = tested on: BRD2BD1, BRD2BD2, BRD3BD1, BRD3BD2, BRD4BD1, BRD4BD2 GFP constructs; test: Cellular imaging-based degradation assay (bromodomain-GFP with mCherry reporter); format: cell-based, human
Method: Cells stably expressing bromodomain-GFP with mCherry reporter were seeded at 30-50% confluency in 384 well plates (3764, Corning) with 50 μL FluoroBrite DMEM media (Gibco, A18967) containing 10% FBS per well a day before compound treatment. Compounds (see Figure legends) were dispensed using D300e Digital Dispenser (HP) normalized to 0.5% DMSO and incubated with cells for 5 h. The assay plate was imaged immediately using Acumen eX3/HCl (TTPLabtech) High Content Imager with 488 nm and 561 nm lasers in 2 μm×1 μm grid per well format. The resulting images were analyzed using CellProfiler™ (Carpenter, et al., GenomeBiology 7:r100 (2006)). A series of image analysis steps (‘image analysis pipeline’) was constructed.
The CellProfiler™ pipeline steps are briefly outlined here. First, the red and green channels were aligned and cropped to target the middle of each well (to avoid analysis of heavily clumped cells at the edges), and a background illumination function was calculated for both red and green channels of each well individually and subtracted to correct for illumination variations across the 384-well plate from various sources of error. An additional step was then applied to the green channel to suppress the analysis of large auto fluorescent artifacts and enhance the analysis of cell specific fluorescence by way of selecting for objects under a given size, 30 A.U., and with a given shape, speckles. mCherry-positive cells were then identified in the red channel filtering for objects between 8-60 pixels in diameter and using intensity to distinguish between clumped objects. The green channel was then segmented into GFP positive and negative areas and objects were labeled as GFP positive if at least 40% of it overlapped with a GFP positive area. The fraction of GFP-positive cells/mCherry-positive cells (GFP/mCherry ratio) in each well was then calculated, and the green and red images were rescaled for visualization. The GFP/mCherry ratio was normalized to DMSO and analyzed in GraphPad Prism 7.

[2] = tested on: BRD2BD1, BRD2BD2, BRD3BD1, BRD3BD2, BRD4BD1, BRD4BD2 EGFP constructs; test: EGFP/mCherry reporter assay on individual BET bromodomains (flow cytometry); format: cell-based, human; details: BRD2/3/4 BD1 and BD2
Method: (§1) IKZF1A, BRD2BD1, BRD2BD2, BRD3BD1, BRD3BD2, BRD4BD1, and BRD4BD2 were subcloned into mammalian pcDNA5/FRT Vector (Ampicillin and Hygromycin B resistant) modified to contain MCS-eGFP-P2A-mCherry. […] Following 2-3 passage cycle FACS (FACSAria II, BD) was used to enrich for cells expressing eGFP and mCherry.
(§2) Signal from 5000 cells per well was acquired in singlicate or duplicate and the eGFP and mCherry florescence monitored. Data was analyzed using FlowJo (FlowJo, LCC). […] The eGFP protein abundance relative to mCherry was then quantified as a ten-fold amplified ratio for each individual cell using the formula: 10×eGFP/mCherry. The median of the ratio was then calculated per set, normalized to the median of the DMSO ratio, and is denoted as relative abundance. Standard deviation is calculated from four replicates (n=4) unless described otherwise.

[3] = molecular target: T1, IKZF1Δ-CRBN complex formation (Homo sapiens, UniProt Q13422+Q96SW2, DEL197-239); test: CRBN-IKZF1Δ binding assay (TR-FRET); details: IKZF1Δ and DDB1ΔB-CRBN
T1 construct: made in house; host or cells: Trichoplusia ni High-Five insect cells (baculovirus)
T1 sequence (Q96SW2 whole entry, stated change not applied): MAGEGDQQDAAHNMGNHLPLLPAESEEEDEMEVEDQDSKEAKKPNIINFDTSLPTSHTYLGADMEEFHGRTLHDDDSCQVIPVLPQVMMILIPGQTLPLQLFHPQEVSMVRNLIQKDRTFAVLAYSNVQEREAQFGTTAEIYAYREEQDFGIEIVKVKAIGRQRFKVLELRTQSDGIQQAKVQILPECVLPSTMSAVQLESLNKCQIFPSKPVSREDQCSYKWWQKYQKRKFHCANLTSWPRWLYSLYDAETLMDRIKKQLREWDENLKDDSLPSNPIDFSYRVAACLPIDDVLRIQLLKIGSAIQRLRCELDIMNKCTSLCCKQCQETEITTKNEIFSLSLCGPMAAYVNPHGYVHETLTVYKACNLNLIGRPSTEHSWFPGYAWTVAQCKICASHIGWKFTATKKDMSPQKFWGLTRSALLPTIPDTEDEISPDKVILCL
T1 sequence (Q13422 with tags, fused parts or gaps DEL197-239 limits assumed): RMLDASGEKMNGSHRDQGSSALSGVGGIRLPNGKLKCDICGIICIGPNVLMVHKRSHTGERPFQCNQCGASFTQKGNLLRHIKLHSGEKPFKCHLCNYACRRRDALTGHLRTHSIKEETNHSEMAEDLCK
Method: Compounds in CRBN mutants dimerization assay were dispensed as described above into 200 nM His6-DDB1-His6-CRBNmutants or 200 nM His6-DDB1ΔB-His6-CRBNWT, 100 nM BRD4BD1-BODIPY-SpyCatcher and 2 nM terbium-anti-HIS Ab (Invitrogen) in a buffer containing 50 mM Tris pH 7.5, 100 mM NaCl, 0.1% Pluronic F-68 solution (Sigma) and 2% DMSO (4% DMSO final). Before TR-FRET measurements were conducted, the reactions were incubated for 15 min at RT. […] The TR-FRET signal of each data point was extracted by calculating the 520/490 nm ratio. […] The peak height of TR-FRET dBET dose response data was calculated in GraphPad Prism 7 using Area Under Curve analysis for three independent replicates (n=3) and the mean peak height and standard deviation calculated.
The standard deviation in IKZF1A TR-FRET compound titrations was calculated from three biological replicates (n=3) as an average of 5 technical replicates per well per experiment, or as an average of 5 technical replicates of single experiment for unlabelled protein titrations.

[4] = molecular target: T2, IKZF1Δ-EGFP fusion protein (Homo sapiens, UniProt Q13422+Q96SW2, DEL197-239); test: IKZF1Δ-EGFP fusion protein degradation reporter assay (flow cytometry); format: cell-based; details: HEK293T cells
T2 construct: expressed in transfected cells; HEK293T cells
Method: as §1, §2

BRD4BD1-EGFP = molecular target: T3, BRD4BD1-EGFP (Homo sapiens, UniProt O60885+Q96SW2); test: BRD4BD1-EGFP/mCherry reporter cellular degradation assay (flow cytometry); format: cell-based; details: 5 h treatment
T3 construct: expressed in transfected cells
Method: Reporter cells that stably express BRD4BD1-EGFP followed by a P2A splice site separated mCherry, were treated with increasing concentrations of dBET molecules (FIG. 3A-FIG. 3F). […] IKZF1A, BRD2BD1, BRD2BD2, BRD3BD1, BRD3BD2, BRD4BD1, and BRD4BD2 were subcloned into mammalian pcDNA5/FRT Vector (Ampicillin and Hygromycin B resistant) modified to contain MCS-eGFP-P2A-mCherry. […] Following 2-3 passage cycle FACS (FACSAria II, BD) was used to enrich for cells expressing eGFP and mCherry.
as §2

[5] = 5 h incubation, cellular imaging

Compound | bromodomain degradation activity and selectivity (in words) [1, 5] | selectivity of degradation across BET bromodomains (in words) [2] | other results
COC(=O)C[C@@H]1N=C(c2ccc(Cl)cc2)c2c(sc(C(=O)NCCCCCNc3cc(F)cc4c3CN(C3CCC(=O)NC3=O)C4=O)c2C)-n2c(C)nnc21 (stereo partly drawn) [BJG-01-174, Methyl 2-((6S)-4-(4-chlorophenyl)-2-((5-((2-(2,6-dioxopiperidin-3-yl)-6-fluoro-1-oxoisoindolin-4-yl)amino)pentyl)carbamoyl)-3,9-dimethyl-6H-thieno[3,2-f][1,2,4]triazolo[4,3-a][1,4]diazepin-6-yl)acetate] | inactive degrader | – | –
COC(=O)C[C@@H]1N=C(c2ccc(Cl)cc2)c2c(sc(C(=O)NCCCCCOc3cccc4c3C(=O)N(C3CCC(=O)NC3=O)C4=O)c2C)-n2c(C)nnc21 (stereo partly drawn) [BJG-02-030, Methyl 2-((6S)-4-(4-chlorophenyl)-2-((5-((2-(2,6-dioxopiperidin-3-yl)-1,3-dioxoisoindolin-4-yl)oxy)pentyl)carbamoyl)-3,9-dimethyl-6H-thieno[3,2-f][1,2,4]triazolo[4,3-a][1,4]diazepin-6-yl)acetate] | maintained BRD4BD1 degradation selectivity, with reduced activity | – | –
COC(=O)C[C@@H]1N=C(c2ccc(Cl)cc2)c2c(sc(C(=O)NCCCCCNc3ccc(F)c4c3C(=O)N(C3CCC(=O)NC3=O)C4=O)c2C)-n2c(C)nnc21 (stereo partly drawn) [BJG-02-119, Methyl 2-((6S)-4-(4-chlorophenyl)-2-((5-((2-(2,6-dioxopiperidin-3-yl)-7-fluoro-1,3-dioxoisoindolin-4-yl)amino)pentyl)carbamoyl)-3,9-dimethyl-6H-thieno[3,2f][1,2,4]triazolo[4,3-a][1,4]diazepin-6-yl)acetate] | maintaining selectivity, with reduced activity as compared to ZXH-3-26 | – | –
Cc1ncsc1-c1ccc(CNC(=O)[C@@H]2C[C@@H](O)CN2C(=O)[C@@H](NC(=O)COCCOCCOCCNC(=O)C[C@@H]2N=C(c3ccc(Cl)cc3)c3c(sc(C)c3C)-n3c(C)nnc32)C(C)(C)C)cc1 [MZ1, reference compound] | – | activity on most bromodomains | –
Cc1sc2c(c1C)C(c1ccc(Cl)cc1)=N[C@@H](CC(=O)NCCOc1cccc3c1C(=O)N(C1CCC(=O)NC1=O)C3=O)c1nnc(C)n1-2 (stereo partly shown) [ZXH-2-42] | significantly reduced activity | – | induction of IKZF1-CRBN complex formation / IKZF1 binding (in words) [3]: greatly reduced compared to their nitrogen analogs
COC(=O)C[C@@H]1N=C(c2ccc(Cl)cc2)c2c(sc(C(=O)NCCCCCCCCOc3cccc4c3C(=O)N(C3CCC(=O)NC3=O)C4=O)c2C)-n2c(C)nnc21 (stereo partly shown) [ZXH-2-43] | potent degradation of bromodomains | – | degradation of BRD2/3/4 at low concentration (in words) ([1]; 2.6 nM concentration, 5 h): significant degradation of BRD2/3/4; induction of IKZF1-CRBN complex formation / IKZF1 binding (in words) [3]: greatly reduced compared to their nitrogen analogs; also recorded: reduced IKZF1 binding; cellular IKZF1 degradation (in words) [4]: reduced IKZF1 binding and IKZF1 degradation
COC(=O)C[C@@H]1N=C(c2ccc(Cl)cc2)c2c(sc(C(=O)NCCCCCCCCOc3ccc4c(c3)C(=O)N(C3CCC(=O)NC3=O)C4=O)c2C)-n2c(C)nnc21 (stereo partly shown) [ZXH-2-45] | potent degradation of bromodomains | – | induction of IKZF1-CRBN complex formation / IKZF1 binding (in words) [3]: greatly reduced compared to their nitrogen analogs; also recorded: reduced IKZF1 binding; cellular IKZF1 degradation (in words) [4]: reduced IKZF1 binding and IKZF1 degradation
COC(=O)C[C@@H]1N=C(c2ccc(Cl)cc2)c2c(sc(C(=O)NCCCNc3cccc4c3C(=O)N(C3CCC(=O)NC3=O)C4=O)c2C)-n2c(C)nnc21 (stereo partly shown) [ZXH-2-147] | – | selectively targets BRD4 for degradation and spares BRD2 and BRD3; also recorded: selective degradation of BRD4 | degradation of BRD4BD1 (in words) (BRD4BD1-EGFP): active on BRD4BD1
COC(=O)C[C@@H]1N=C(c2ccc(Cl)cc2)c2c(sc(C(=O)NCCCCNc3cccc4c3C(=O)N(C3CCC(=O)NC3=O)C4=O)c2C)-n2c(C)nnc21 (stereo partly shown) [ZXH-2-184] | – | selectively targets BRD4 for degradation and spares BRD2 and BRD3; also recorded: selective degradation of BRD4 | –
COC(=O)C[C@@H]1N=C(c2ccc(Cl)cc2)c2c(sc(C(=O)NCCNc3cccc4c3C(=O)N(C3CCC(=O)NC3=O)C4=O)c2C)-n2c(C)nnc21 (stereo partly shown) [ZXH-3-27] | – | lack of selective degradation of BRD4 | –
COC(=O)C[C@@H]1N=C(c2ccc(Cl)cc2)c2c(sc(C(=O)NCCNc3ccc4c(c3)C(=O)N(C3CCC(=O)NC3=O)C4=O)c2C)-n2c(C)nnc21 (stereo partly shown) [ZXH-3-28] | inactive molecule | – | –
COC(=O)C[C@@H]1N=C(c2ccc(Cl)cc2)c2c(sc(C(=O)NCCCc3cccc4c3C(=O)N(C3CCC(=O)NC3=O)C4=O)c2C)-n2c(C)nnc21 (stereo partly shown) [ZXH-3-52] | – | – | BRD3/BRD4 selective degradation observed [1, 5]: BRD3/BRD4 selective degraders
COC(=O)C[C@@H]1N=C(c2ccc(Cl)cc2)c2c(sc(C(=O)NCCCCCCc3cccc4c3C(=O)N(C3CCC(=O)NC3=O)C4=O)c2C)-n2c(C)nnc21 (stereo partly shown) [ZXH-3-82] | – | selectively targets BRD4 for degradation and spares BRD2 and BRD3 | –
COC(=O)C[C@@H]1N=C(c2ccc(Cl)cc2)c2c(sc(C(=O)NCCCCCCCCNc3ccc4c(c3)C(=O)N(C3CCC(=O)NC3=O)C4=O)c2C)-n2c(C)nnc21 (stereo partly shown) [dBET72, reference compound] | – | – | induction of IKZF1-CRBN complex formation / IKZF1 binding (in words) [3]: pronounced complex formation; cellular IKZF1 degradation (in words) [4]: equipotent to lenalidomide
